Reference: patent US20250353873A1, “COMPOUNDS AND METHODS FOR MODULATING APOE EXPRESSION” (Ionis Pharmaceuticals, Inc., priority 2024, published 2025)
Strand notation (5' to 3'): a small letter for the sugar, then the base; units joined by * are phosphorothioate-linked, units joined directly phosphodiester-linked; [ ] holds rarer units or linkages, { } end groups; capitals alone tell only the bases. [ms] = mesyl phosphoramidate linkage; k = constrained ethyl (cEt); [5mC] = 5-methylcytosine; d = 2'-deoxy (DNA)

Experiments:
[1] = test system: human APOE RNA; assay: Potency (dose response, ED50) in APOE C57BL/6NTac-Apoeem7250 knock-in mice, 4 weeks (Example 14); format: in vivo
Protocol: Modified oligonucleotides described above were tested in the APOE C57BL/6NTac-Apoeem7250 knock-in mouse model described above.
APOE C57BL/6NTac-Apoeem7250 knock-in mice were divided into groups of 3-4 mice each. A group of 3-4 mice received a single ICV bolus with PBS as a negative control.
Four weeks post treatment, mice were sacrificed, and RNA was extracted from cortical brain tissue and spinal cord for quantitative real-time RT-PCR analysis of RNA expression of […] using human primer probe set RTS3073 (described herein above). APOE RNA levels were normalized to mouse Ppia. Mouse Ppia was amplified using primer probe set m_cyclo24 (described herein above). Results are presented as percent human APOE RNA relative to the amount of APOE RNA in PBS treated animals, (% control). N.C. indicates values that were not calculated. Each experiment is identified in separate tables below.
The half maximal effective dose (ED50) of each modified oligonucleotide was calculated using GraphPad Prism 10 software (GraphPad Software, San Diego, CA).

[2] = test system: human APOE RNA; assay: Activity in APOE C57BL/6NTac-Apoeem7250 knock-in mice, single ICV bolus, 4 weeks (Example 10); format: in vivo; conditions: single ICV bolus 300 μg, 4 weeks post treatment, normalized to mouse Ppia
Procedure, shortened: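 Knock-in mice (2–4 per group) received one 300 μg ICV bolus of oligonucleotide or PBS. After four weeks, human APOE RNA in cortex and spinal cord measured by RT-qPCR (primer probe set RTS3073), normalized to mouse Ppia, expressed as % of PBS controls.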

[3] = test system: human APOE RNA; assay: Dose-dependent inhibition of human APOE RNA in differentiated SH-SY5Y cells, free uptake, 5 days (Example 5); format: cell-based; conditions: 5 days (Table 14)
Procedure, shortened: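 Differentiated SH-SY5Y cells (10,000/well) treated by free uptake with graded oligonucleotide concentrations for 5 days. APOE RNA quantified with primer probe set RTS3073, normalized to PPIA, expressed as % untreated control; IC50 calculated.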

[4] = test system: human APOE RNA; assay: Dose-dependent reduction of human APOE RNA in HepG2 cells, electroporation, 20,000 cells per well, average of GAPDH- and PPIA-normalized results (Example 4, Table 12); format: cell-based; conditions: HepG2, 20,000 cells per well
Protocol: HepG2 cells plated at a density of 20,000 cells per well were treated by electroporation with various concentrations of modified oligonucleotide as specified in the tables below. […] APOE RNA levels were measured using the human primer probe set RTS3073 (described herein above). APOE RNA levels were normalized to human GAPDH, and human PPIA. Human GAPDH was amplified using human primer probe set RTS104 (described herein above). Human PPIA was amplified using human primer probe set mk_cycloA_2nd (described herein above) The average of the GAPDH-normalized results and the PPIA-normalized results are presented in the table below as percent APOE RNA, relative to the amount of APOE RNA in untreated control cells (% UTC). The half maximal inhibitory concentration (IC50) of each modified oligonucleotide was calculated in GraphPad Prism 10 (GraphPad Software, San Diego, CA) and is also presented in the table below.

[5] = test system: human APOE RNA; assay: Activity in APOE C57BL/6NTac-Apoeem7250 knock-in mice, single ICV bolus, 8 weeks (Example 11); format: in vivo; conditions: single ICV bolus 300 μg, 8 weeks post treatment, normalized to mouse Ppia
Procedure, shortened: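 Human APOE knock-in C57BL/6NTac mice given one ICV bolus of 300 μg oligonucleotide; PBS-dosed group as control. At 8 weeks, cortex and spinal cord RNA measured by qRT-PCR (human probe RTS3073), normalized to mouse Ppia, expressed as % of PBS control.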

Q: What does the source list for “1785598: modified oligonucleotide complementary to human APOE RNA (k[5mC]*kT*kT*dG[ms]dG[ms]dT[ms]dG[ms]dA[ms]dA[ms]dT*d[5mC]*dT*dT*dT*dA*dT[ms]kT*kA*dA[ms]kA; antisense) [compound 1785598]”?
A: APOE RNA (% control) Cortex ([1]; cortex, ICV dose 10 μg): 104 % control; APOE RNA (% control) Cortex ([1]; cortex, ICV dose 30 μg): 84 % control; APOE RNA (% control) Cortex ([1]; cortex, ICV dose 100 μg): 60 % control; APOE RNA (% control) Cortex ([1]; cortex, ICV dose 300 μg): 37 % control; APOE RNA (% control) Cortex ([1]; cortex, ICV dose 700 μg): 23 % control; ED 50 (μg) Cortex ([1]; cortex, single ICV bolus, GraphPad Prism 10): 175.4 µg; APOE RNA (% control) Spinal Cord ([1]; spinal cord, ICV dose 10 μg): 97 % control; APOE RNA (% control) Spinal Cord ([1]; spinal cord, ICV dose 30 μg): 70 % control; APOE RNA (% control) Spinal Cord ([1]; spinal cord, ICV dose 100 μg): 65 % control; APOE RNA (% control) Spinal Cord ([1]; spinal cord, ICV dose 300 μg): 60 % control; APOE RNA (% control) Spinal Cord ([1]; spinal cord, ICV dose 700 μg): 41 % control; ED 50 (μg) Spinal Cord ([1]; spinal cord, single ICV bolus, GraphPad Prism 10): 416.7 µg; APOE RNA (% control) Cortex ([2]; cortex): 29 % control; APOE RNA (% control) Spinal Cord ([2]; spinal cord): 40 % control; APOE RNA (% UTC) ([3]; 5 nM): 72 % UTC; APOE RNA (% UTC) ([3]; 13 nM): 59 % UTC; APOE RNA (% UTC) ([3]; 33 nM): 90 % UTC; APOE RNA (% UTC) ([3]; 82 nM): 57 % UTC; APOE RNA (% UTC) ([3]; 205 nM): 59 % UTC; APOE RNA (% UTC) ([3]; 512 nM): 39 % UTC; APOE RNA (% UTC) ([3]; 1,280 nM): 23 % UTC; APOE RNA (% UTC) ([3]; 3,200 nM): 23 % UTC; APOE RNA (% UTC) ([3]; 8,000 nM): 9 % UTC; APOE RNA (% UTC) ([3]; 20,000 nM): 11 % UTC; IC50 [3]: 180 nM; APOE RNA (% UTC) ([4]; 5 nM): 103 % UTC; APOE RNA (% UTC) ([4]; 13 nM): 97 % UTC; APOE RNA (% UTC) ([4]; 33 nM): 88 % UTC; APOE RNA (% UTC) ([4]; 82 nM): 75 % UTC; APOE RNA (% UTC) ([4]; 205 nM): 56 % UTC; APOE RNA (% UTC) ([4]; 512 nM): 36 % UTC; APOE RNA (% UTC) ([4]; 1,280 nM): 23 % UTC; APOE RNA (% UTC) ([4]; 3,200 nM): 9 % UTC; APOE RNA (% UTC) ([4]; 8,000 nM): 11 % UTC; APOE RNA (% UTC) ([4]; 20,000 nM): 11 % UTC; IC50 ([4]; approximately 24 hours): 290 nM; APOE RNA (% control) Cortex ([5]; cortex): 23 % control; APOE RNA (% control) Spinal Cord ([5]; spinal cord): 16 % control
